Each structure is given as a SMILES string. Where two headings read alike, the source gives them in different places.

Consider eleven molecules from PMC8861568, “Identification of (Z)-2-benzylidene-dihydroimidazothiazolone derivatives as tyrosinase inhibitors: Anti-melanogenic effects and in silico studies” (Computational and Structural Biotechnology Journal, 2022).

Assay [1] concerns the target mushroom tyrosinase (mTYR). Kind of assay: Mushroom tyrosinase inhibition assay. The format is biochemical, Agaricus bisporus. Set-up: Tyrosinase inhibition (%): dose or concentration left out as unconfirmed. To be noted: for IC50: mushroom tyrosinase; for IC50 / Tyrosinase inhibition (%): L-tyrosine substrate; for Tyrosinase inhibition (%): […] μM of compound. As for the experimental part:
The tyrosinase inhibitory activity assays on the synthesized DHIT derivatives 1a – 1 k was performed using mushroom tyrosinase (mTYR), as previously described with minor modification. […] The optical densities of dopachrome produced during incubation were measured using a microplate reader (VersaMax™, Molecular Devices, Sunnyvale, CA, USA) at 492 nm. […] All experiments were conducted in triplicate. To calculate the tyrosinase inhibitory activities, the following formula was used: % inhibition = [(1− (A/B)) × 100], where A is test sample optical density and B is the optical density of the non-treated control.
IC50 values were calculated by plotting linear regression curves of percentage inhibitions versus derivative concentrations. The negative control was obtained by adding dimethyl sulfoxide (DMSO) instead of a DHIT derivative.

Another assay deals with mushroom tyrosinase. Set-up: method as in PMID 29521165. To be noted: cited from earlier work.

For the molecule `COc1ccc(/C=c2\sc3n(c2=O)CCN=3)cc1` [Compound 1 g, (Z)-2-(4-Methoxybenzylidene)-5,6-dihydroimidazo[2,1-b]thiazol-3(2H)-one], in assay [1], the IC50 is more than 100 µM.
On to `COc1ccc(/C=c2\sc3n(c2=O)CCN=3)c(OC)c1` [Compound 1 h, (Z)-2-(2,4-Dimethoxybenzylidene)-5,6-dihydroimidazo[2,1-b]thiazol-3(2H)-one], for which the IC50 in assay [1] is more than 100 µM.
The molecule `COc1cc(/C=c2\sc3n(c2=O)CCN=3)cc(OC)c1OC` [Compound 1 k, (Z)-2-(3,4,5-Trimethoxybenzylidene)-5,6-dihydroimidazo[2,1-b]thiazol-3(2H)-one] displayed an IC50 in assay [1] of more than 100 µM.
As for `O=c1/c(=C/c2ccc(O)cc2)sc2n1CCN=2` [Compound 1a, (Z)-2-(4-Hydroxybenzylidene)-5,6-dihydroimidazo[2,1-b]thiazol-3(2H)-one], in assay [1], the “mushroom tyrosinase inhibition compared with kojic acid” value is reported as “inhibited mTYR more than kojic acid” and half-maximal inhibition (IC50) was put at 36.1 ± 3.9 µM. Further, in assay [1] (ratio of IC50 values), the “fold stronger tyrosinase inhibitor than kojic acid” value was 2.3 fold.
In assay [1], `O=c1/c(=C/c2ccc(O)c(O)c2)sc2n1CCN=2` [Compound 1c, (Z)-2-(3,4-Dihydroxybenzylidene)-5,6-dihydroimidazo[2,1-b]thiazol-3(2H)-one] showed a half-maximal inhibitory concentration (IC50) of more than 100 µM.
For `COc1cc(/C=c2\sc3n(c2=O)CCN=3)ccc1O` [Compound 1d, (Z)-2-(4-Hydroxy-3-methoxybenzylidene)-5,6-dihydroimidazo[2,1-b]thiazol-3(2H)-one], in assay [1] ([…] µM), the “Tyrosinase inhibition (%)” value is reported as 7.83 ± 2.29%. For the same molecule, the IC50 in assay [1] is more than 100 µM.
On to `CCOc1cc(/C=c2\sc3n(c2=O)CCN=3)ccc1O` [Compound 1e, (Z)-2-(3-Ethoxy-4-hydroxybenzylidene)-5,6-dihydroimidazo[2,1-b]thiazol-3(2H)-one], for which the “Tyrosinase inhibition (%)” value in assay [1] ([…] µM) came out at 3.90 ± 2.65%. In assay [1], this molecule returned a concentration for half-maximal inhibition (IC50) of more than 100 µM.
Consider `COc1ccc(/C=c2\sc3n(c2=O)CCN=3)cc1OC` [Compound 1i, (Z)-2-(3,4-Dimethoxybenzylidene)-5,6-dihydroimidazo[2,1-b]thiazol-3(2H)-one], for which, in assay [1], the “Tyrosinase inhibition (%)” value was “low or no mTYR inhibitory activity” and the IC50 was more than 100 µM.
Turning to `COc1cc(/C=c2\sc3n(c2=O)CCN=3)cc(OC)c1O` [Compound 1j, (Z)-2-(4-Hydroxy-3,5-dimethoxybenzylidene)-5,6-dihydroimidazo[2,1-b]thiazol-3(2H)-one], in assay [1], the “Tyrosinase inhibition (%)” value was found to be 24.43 ± 1.50% and the concentration for half-maximal inhibition (IC50) was more than 100 µM.
Turning to `[H]/N=C1/NC(=O)C(=Cc2ccc(OC)c(O)c2)S1` [MHY773, (Z)-5-(3-hydroxy-4-methoxybenzylidene)-2-iminothiazolidin-4-one], the values for the IC50 on mushroom tyrosinase (diphenolase) and on mushroom tyrosinase (monophenolase) were 8.06 µM and 2.87 µM, respectively.
Regarding `O=c1cc(CO)occ1O` [kojic acid, reference compound], the “Tyrosinase inhibition (%)” value is listed as 30% in assay [1] ([…] µM) and 30.26 ± 0.55% in assay [1] (listed as KA, […] µM).

Usually IC50 stands for the point on the concentration scale where inhibition reaches its midpoint.
